{"source": "patent JPH07501070A", "about": "“3−ピリジノール誘導体およびその医薬的使用” (スミスクライン・ビーチャム・パブリック・リミテッド・カンパニー, priority 1991, dated 1993)", "test_system": "guinea pig trachea [モルモット・気管]", "experiment": "Bronchodilation in vitro (spontaneous tension of tracheal spirals)", "conditions": "Cavia porcellus, Krebs solution, cumulative addition, read-out: IC50 (concentration inhibiting spontaneously generated tension by 50%)"}
{"smiles": "CCOP(=O)(O)c1ncc(-c2ccc3ccccc3c2)cc1O", "note": "[実施例1, [5−(2−ナフチル)−3−ヒドロキシ−2−ピリジル]ホスホン酸エチル]", "values": [{"measurement": "IC50", "value": 100, "unit": "µM"}]}
